Experimental data reported in patent US20090270413A1, “DI-T-BUTYLPHENYL PIPERAZINES AS CALCIUM CHANNEL BLOCKERS” (priority 2008, published 2009).

Target: T1, Human Cav2.2 channels (Homo sapiens, UniProt Q00975)
T1 construct: expressed in transfected cells
Test: Block of Cav2.2 (N-type) channels expressed in HEK293 cells
Assay type: cell-based
Conditions: HEK293; for inhibition at 10 µM: read-out: Cav 2.2 % Inh @ 10 μM; for inhibition at 30 µM: read-out: Cav 2.2 % Inh @ 30 μM
Description: Human Cav2.2 channels were stably expressed in HEK293 cells along with alpha2-delta and beta subunits of voltage-gated calcium channels. An inwardly rectifying potassium channel (Kir2.3) was also expressed in these cells to allow more precise control of the cell membrane potential by extracellular potassium concentration. At low bath potassium concentration, the membrane potential is relatively negative, and is depolarized as the bath potassium concentration is raised. In this way, the bath potassium concentration can be used to regulate the voltage-dependent conformations of the channels. Compounds are incubated with cells in the presence of low (4 mM) potassium or elevated (12, 25 or 30 mM) potassium to determine the affinity for compound block of resting (closed) channels at 4 mM potassium or affinity for block of open and inactivated channels at 12, 25 or 30 mM potassium. After the incubation period, Cav2.2 channel opening is triggered by addition of higher concentration of potassium (70 mM final concentration) to further depolarize the cell. The degree of state-dependent block can be estimated from the inhibitory potency of compounds after incubation in different potassium concentrations.
Calcium influx through Cav2.2 channels is determined using a calcium sensitive fluorescent dye in combination with a fluorescent plate reader. Fluorescent changes were measured with either a VIPR (Aurora Instruments) or FLIPR (Molecular Devices) plate reader.
Protocol • 1. Seed cells in Poly-D-Lysine Coated 96 or 384-well plate and keep in a 37° C.-10% CO2 incubator overnight • 2. Remove media, wash cells with 0.2 mL (96-well plate) or 0.05 mL (384-well plate) Dulbecco's Phosphate Buffered Saline (D-PBS) with calcium & magnesium (Invitrogen; 14040) • 3. Add 0.1 mL (96-well plate) or 0.05 mL (384-well plate) of 4 μM fluor-4 (Molecular Probes; F-14202) and 0.02% Pluronic acid (Molecular Probes; P-3000) prepared in D-PBS with calcium & magnesium (Invitrogen; 14040) supplemented with 10 mM Glucose & 10 mM Hepes/NaOH; pH 7.4 • 4. Incubate in the dark at 25° C. for 60-70 min • 5. Remove dye, wash cells with 0.1 mL (96-well plate) or 0.06 mL (384-well plate) of 4, 12, 25, or 30 mM Potassium Pre-polarization Buffer (PPB) • 6. Add 0.1 mL (96-well plate) or 0.03 mL (384-well plate) of 4, 12, 25, 30 mM PPB with or without test compound • 7. Incubate in the dark at 25° C. for 30 min • 8. Read cell plate on VIPR instrument, Excitation=480 nm, Emission=535 nm • 9. With VIPR continuously reading, add 0.1 mL (96-well plate) or 0.03 mL (384-well plate) of Depolarization Buffer (DB), which is 2× the final assay concentration, to the cell plate.
Block of N-type calcium channels is evaluated utilizing the IonWorks HT 384 well automated patch clamp electrophysiology device. This instrument allows synchronous recording from 384 well (48 at a time). A single whole cell recording is made in each well. Whole cell recording is established by perfusion of the internal compartment with amphotericin B.
The voltage protocol is designed to detect use-dependent block. A 2 Hz train of depolarizations (twenty 25 ms steps to +20 mV). The experimental sequence consists of a control train (pre-compound), incubation of cells with compound for 5 minutes, followed by a second train (post-compound). Use dependent block by compounds is estimated by comparing fractional block of the first pulse in the train to block of the 20th pulse.
Parallel patch clamp electrophysiology is performed using IonWorks HT (Molecular Devices Corp) essentially as described by Kiss and colleagues (Kiss et al. 2003; Assay and Drug Development Technologies, 1:127-135). Briefly, a stable HEK 293 cell line (referred to as CBK) expressing the N-type calcium channel subunits (α1B, α2δ, β3a) and an inwardly rectifying potassium channel (Kir2.3) is used to record barium current through the N-type calcium channel. Cells are grown in T75 culture plates to 60-90% confluence before use. […]

T1 sequence (Q00975 whole entry): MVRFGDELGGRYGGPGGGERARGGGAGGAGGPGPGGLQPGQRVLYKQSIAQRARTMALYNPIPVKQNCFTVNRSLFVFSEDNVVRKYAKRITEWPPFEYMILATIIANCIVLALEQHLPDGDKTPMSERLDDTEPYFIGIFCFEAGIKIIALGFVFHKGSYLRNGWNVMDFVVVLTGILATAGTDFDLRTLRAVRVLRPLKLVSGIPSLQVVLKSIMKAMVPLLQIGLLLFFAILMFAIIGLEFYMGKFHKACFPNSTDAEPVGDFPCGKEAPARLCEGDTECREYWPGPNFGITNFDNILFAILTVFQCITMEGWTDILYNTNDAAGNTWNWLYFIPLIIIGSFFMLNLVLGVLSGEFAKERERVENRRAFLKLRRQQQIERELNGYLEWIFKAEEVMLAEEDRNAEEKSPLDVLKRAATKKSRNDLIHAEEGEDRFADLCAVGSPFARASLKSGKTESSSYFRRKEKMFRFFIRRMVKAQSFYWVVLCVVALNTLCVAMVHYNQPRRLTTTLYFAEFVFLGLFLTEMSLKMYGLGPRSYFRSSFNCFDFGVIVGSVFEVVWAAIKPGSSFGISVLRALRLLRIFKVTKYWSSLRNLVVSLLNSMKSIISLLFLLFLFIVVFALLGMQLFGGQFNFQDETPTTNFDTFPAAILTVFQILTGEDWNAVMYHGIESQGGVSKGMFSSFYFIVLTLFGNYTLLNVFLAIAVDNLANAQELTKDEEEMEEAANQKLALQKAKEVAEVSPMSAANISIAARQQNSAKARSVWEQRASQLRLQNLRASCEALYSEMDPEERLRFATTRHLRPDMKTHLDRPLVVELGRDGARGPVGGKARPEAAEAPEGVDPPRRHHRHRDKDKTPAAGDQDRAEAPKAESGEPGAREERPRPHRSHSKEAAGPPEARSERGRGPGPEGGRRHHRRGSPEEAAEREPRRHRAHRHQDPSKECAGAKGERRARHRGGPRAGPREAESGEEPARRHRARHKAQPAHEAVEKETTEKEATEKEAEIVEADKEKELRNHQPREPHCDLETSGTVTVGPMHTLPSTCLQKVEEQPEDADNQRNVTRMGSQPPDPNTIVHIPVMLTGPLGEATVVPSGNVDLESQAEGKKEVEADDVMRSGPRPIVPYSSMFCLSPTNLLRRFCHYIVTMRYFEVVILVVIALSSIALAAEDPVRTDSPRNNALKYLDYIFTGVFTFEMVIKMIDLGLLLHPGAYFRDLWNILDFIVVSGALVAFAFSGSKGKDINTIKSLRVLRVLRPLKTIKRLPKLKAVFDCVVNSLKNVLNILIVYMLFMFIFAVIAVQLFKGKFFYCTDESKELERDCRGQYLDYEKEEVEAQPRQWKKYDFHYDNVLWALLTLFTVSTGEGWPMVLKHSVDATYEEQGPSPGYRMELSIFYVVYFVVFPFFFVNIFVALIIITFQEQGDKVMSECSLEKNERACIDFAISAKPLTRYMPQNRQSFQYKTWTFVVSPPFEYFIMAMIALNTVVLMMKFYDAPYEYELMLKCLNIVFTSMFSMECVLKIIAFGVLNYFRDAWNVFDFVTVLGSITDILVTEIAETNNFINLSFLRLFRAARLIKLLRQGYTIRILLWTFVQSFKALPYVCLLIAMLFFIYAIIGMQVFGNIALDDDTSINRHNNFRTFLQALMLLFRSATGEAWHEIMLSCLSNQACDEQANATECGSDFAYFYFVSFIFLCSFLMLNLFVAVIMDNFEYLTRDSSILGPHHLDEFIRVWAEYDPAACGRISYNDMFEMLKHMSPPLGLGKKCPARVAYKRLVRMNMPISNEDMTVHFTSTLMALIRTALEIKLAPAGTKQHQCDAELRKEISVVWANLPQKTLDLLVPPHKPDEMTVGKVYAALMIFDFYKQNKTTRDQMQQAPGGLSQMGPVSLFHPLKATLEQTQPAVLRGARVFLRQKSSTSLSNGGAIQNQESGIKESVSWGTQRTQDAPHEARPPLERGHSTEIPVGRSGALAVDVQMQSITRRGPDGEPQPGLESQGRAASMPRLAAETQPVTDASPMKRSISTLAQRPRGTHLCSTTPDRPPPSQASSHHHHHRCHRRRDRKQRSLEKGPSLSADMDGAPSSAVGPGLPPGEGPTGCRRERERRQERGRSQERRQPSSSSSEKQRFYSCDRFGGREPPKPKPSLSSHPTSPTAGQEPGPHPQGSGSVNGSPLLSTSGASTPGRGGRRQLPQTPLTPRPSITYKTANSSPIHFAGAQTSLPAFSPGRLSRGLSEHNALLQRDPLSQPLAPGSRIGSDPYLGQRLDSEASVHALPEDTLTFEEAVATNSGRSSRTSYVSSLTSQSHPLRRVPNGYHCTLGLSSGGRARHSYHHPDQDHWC
T1 sequence (P54289 25-956 partner limits assumed): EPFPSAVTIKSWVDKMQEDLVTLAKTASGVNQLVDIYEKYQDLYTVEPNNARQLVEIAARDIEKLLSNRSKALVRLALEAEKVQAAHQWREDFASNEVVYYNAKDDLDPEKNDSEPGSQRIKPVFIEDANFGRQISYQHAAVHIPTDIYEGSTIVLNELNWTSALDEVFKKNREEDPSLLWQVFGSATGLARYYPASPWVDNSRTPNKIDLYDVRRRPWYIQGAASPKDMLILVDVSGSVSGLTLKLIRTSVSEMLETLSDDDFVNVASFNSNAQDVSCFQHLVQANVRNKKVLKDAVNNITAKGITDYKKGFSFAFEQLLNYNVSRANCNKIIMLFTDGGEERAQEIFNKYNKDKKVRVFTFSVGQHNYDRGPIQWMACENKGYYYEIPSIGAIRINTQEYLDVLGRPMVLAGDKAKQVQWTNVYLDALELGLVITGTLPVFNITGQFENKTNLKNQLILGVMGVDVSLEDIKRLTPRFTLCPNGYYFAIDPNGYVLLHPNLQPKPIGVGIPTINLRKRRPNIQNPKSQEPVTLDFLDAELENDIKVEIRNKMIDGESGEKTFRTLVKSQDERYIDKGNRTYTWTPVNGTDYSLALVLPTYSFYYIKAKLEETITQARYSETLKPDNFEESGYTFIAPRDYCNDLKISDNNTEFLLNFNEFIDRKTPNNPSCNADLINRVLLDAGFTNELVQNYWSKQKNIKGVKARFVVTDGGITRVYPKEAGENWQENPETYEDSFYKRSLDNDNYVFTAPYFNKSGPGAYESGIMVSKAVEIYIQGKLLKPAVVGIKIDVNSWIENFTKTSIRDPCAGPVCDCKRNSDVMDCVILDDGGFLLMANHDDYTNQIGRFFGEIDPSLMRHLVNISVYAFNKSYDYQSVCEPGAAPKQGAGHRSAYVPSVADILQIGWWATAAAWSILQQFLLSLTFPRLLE
T1 sequence (P54289 957-1103 partner limits assumed): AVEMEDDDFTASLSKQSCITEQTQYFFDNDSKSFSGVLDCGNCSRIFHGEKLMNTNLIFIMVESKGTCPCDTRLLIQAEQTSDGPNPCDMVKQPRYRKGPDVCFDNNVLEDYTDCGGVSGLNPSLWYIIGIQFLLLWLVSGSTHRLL
T1 sequence (P54284 whole entry partner): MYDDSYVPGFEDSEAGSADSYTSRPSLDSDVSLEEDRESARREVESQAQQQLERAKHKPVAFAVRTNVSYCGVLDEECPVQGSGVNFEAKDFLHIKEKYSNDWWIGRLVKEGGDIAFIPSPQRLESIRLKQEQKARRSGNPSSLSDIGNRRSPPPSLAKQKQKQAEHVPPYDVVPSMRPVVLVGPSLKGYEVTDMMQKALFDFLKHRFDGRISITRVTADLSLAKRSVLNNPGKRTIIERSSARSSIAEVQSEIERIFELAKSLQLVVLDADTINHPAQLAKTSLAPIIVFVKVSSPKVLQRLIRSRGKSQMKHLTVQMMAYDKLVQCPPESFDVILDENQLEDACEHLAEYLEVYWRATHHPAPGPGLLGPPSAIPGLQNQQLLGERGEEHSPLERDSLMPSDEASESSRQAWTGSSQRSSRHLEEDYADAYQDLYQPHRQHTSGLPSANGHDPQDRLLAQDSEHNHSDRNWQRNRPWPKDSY

inhibition at 10 µM [%] | inhibition at 30 µM [%] | SMILES
15 | 41 | CC(C)(C)c1cc(N2CCN(C(=O)c3cc4cc(C(F)(F)F)ccc4s3)CC2)cc(C(C)(C)C)c1 [Compound 39, (4-(3,5-di-tert-butylphenyl)piperazin-1-yl)(5-(trifluoromethyl)benzo[b]thiophen-2-yl)methanone]
65 | 81 | CCCc1cc(C(=O)N2CCN(c3cc(C(C)(C)C)cc(C(C)(C)C)c3)CC2)sc1C [Compound 44, (4-(3,5-di-tert-butylphenyl)piperazin-1-yl)(5-methyl-4-propylthiophen-2-yl)methanone]
75 | 88 | CCc1cc(C(=O)N2CCN(c3cc(C(C)(C)C)cc(C(C)(C)C)c3)CC2)sc1C [Compound 52, (4-(3,5-di-tert-butylphenyl)piperazin-1-yl)(4-ethyl-5-methylthiophen-2-yl)methanone]
46 | 57 | CC1CCc2sc(C(=O)N3CCN(c4cc(C(C)(C)C)cc(C(C)(C)C)c4)CC3)cc2C1 (stereo not drawn) [Compound 43, (4-(3,5-di-tert-butylphenyl)piperazin-1-yl)(5-methyl-4,5,6,7-tetrahydrobenzo[b]thiophen-2-yl)methanone]
98 | 100 | CCOc1ccc(C(=O)N2CCN(c3cc(C(C)(C)C)cc(C(C)(C)C)c3)CC2)o1 [Compound 51, (4-(3,5-di-tert-butylphenyl)piperazin-1-yl)(5-ethoxyfuran-2-yl)methanone]
79 | 89 | CC(C)(C)c1cc(N2CCN(C(=O)c3nsc(Cl)c3Cl)CC2)cc(C(C)(C)C)c1 [Compound 46, (4-(3,5-di-tert-butylphenyl)piperazin-1-yl)(4,5-dichloroisothiazol-3-yl)methanone]
54 | 98 | CC(C)(C)c1cc(N2CCN(C(=O)c3cc(C4CC4)n[nH]3)CC2)cc(C(C)(C)C)c1 [Compound 42, (3-cyclopropyl-1H-pyrazol-5-yl)(4-(3,5-di-tert-butylphenyl)piperazin-1-yl)methanone]
86 | 91 | CC(C)(C)c1cc(N2CCN(C(=O)c3cc(C4CC4)nc4ccccc34)CC2)cc(C(C)(C)C)c1 [Compound 40, (2-cyclopropylquinolin-4-yl)(4-(3,5-di-tert-butylphenyl)piperazin-1-yl)methanone]

The remaining lines, values behind:

SMILES | inhibition at 10 µM [%] | inhibition at 30 µM [%]
CC(C)(C)c1cc(N2CCN(C(=O)c3ccc(S(C)(=O)=O)cc3Cl)CC2)cc(C(C)(C)C)c1 [Compound 5, (2-chloro-4-(methylsulfonyl)phenyl)(4-(3,5-di-tert-butylphenyl)piperazin-1-yl)methanone] | 85 | 96
CC(C)(C)c1cc(N2CCN(C(=O)c3csc(-c4cccc(C(F)(F)F)c4)n3)CC2)cc(C(C)(C)C)c1 [Compound 18, (4-(3,5-di-tert-butylphenyl)piperazin-1-yl)(2-(3-(trifluoromethyl)phenyl)thiazol-4-yl)methanone] | 59 | 83
CC(C)(C)c1cc(N2CCN(C(=O)c3ccncc3)CC2)cc(C(C)(C)C)c1 [Compound 2, (4-(3,5-di-tert-butylphenyl)piperazin-1-yl)(pyridin-4-yl)methanone] | 90 | 94
Cc1cc(C(=O)N2CCN(c3cc(C(C)(C)C)cc(C(C)(C)C)c3)CC2)c(C(F)(F)F)o1 [Compound 1, (4-(3,5-di-tert-butylphenyl)piperazin-1-yl)(5-methyl-2-(trifluoromethyl)furan-3-yl)methanone] | 91 | 101
Cc1ccc(C(=O)N2CCN(c3cc(C(C)(C)C)cc(C(C)(C)C)c3)CC2)c(C)c1 [Compound 15, (4-(3,5-di-tert-butylphenyl)piperazin-1-yl)(2,4-dimethylphenyl)methanone] | 96 | 93
CC(C)(C)c1cc(N2CCN(C(=O)c3cc(F)cc(C(F)(F)F)c3)CC2)cc(C(C)(C)C)c1 [Compound 12, (4-(3,5-di-tert-butylphenyl)piperazin-1-yl)(3-fluoro-5-(trifluoromethyl)phenyl)methanone] | 84 | 98
CC(C)(C)c1cc(N2CCN(C(=O)c3ccc(S(=O)(=O)C(C)(C)C)s3)CC2)cc(C(C)(C)C)c1 [Compound 21, (5-(tert-butylsulfonyl)thiophen-2-yl)(4-(3,5-di-tert-butylphenyl)piperazin-1-yl)methanone] | 53 | 78
CC(C)c1cc(C(=O)N2CCN(c3cc(C(C)(C)C)cc(C(C)(C)C)c3)CC2)c2cnn(C(C)C)c2n1 [Compound 27, (4-(3,5-di-tert-butylphenyl)piperazin-1-yl)(1,6-diisopropyl-1H-pyrazolo[3,4-b]pyridin-4-yl)methanone] | 59 | 83
Cn1nc(C(C)(C)C)cc1C(=O)N1CCN(c2cc(C(C)(C)C)cc(C(C)(C)C)c2)CC1 [Compound 11, (3-tert-butyl-1-methyl-1H-pyrazol-5-yl)(4-(3,5-di-tert-butylphenyl)piperazin-1-yl)methanone] | 91 | 97
CC(C)(C)c1cc(N2CCN(C(=O)c3ccc(C(C)(C)C)s3)CC2)cc(C(C)(C)C)c1 [Compound 34, (5-tert-butylthiophen-2-yl)(4-(3,5-di-tert-butylphenyl)piperazin-1-yl)methanone] | 52 | 59
CC(C)(C)c1cc(N2CCN(C(=O)c3cc4cccnc4nc3C(F)(F)F)CC2)cc(C(C)(C)C)c1 [Compound 19] | 49 | 69
CC(C)c1cc(C(=O)N2CCN(c3cc(C(C)(C)C)cc(C(C)(C)C)c3)CC2)on1 [Compound 24, (4-(3,5-di-tert-butylphenyl)piperazin-1-yl)(3-isopropylisoxazol-5-yl)methanone] | 88 | 96
Cc1oc(C(C)(C)C)cc1C(=O)N1CCN(c2cc(C(C)(C)C)cc(C(C)(C)C)c2)CC1 [Compound 35, (5-tert-butyl-2-methylfuran-3-yl)(4-(3,5-di-tert-butylphenyl)piperazin-1-yl)methanone] | 77 | 95
COc1ccc(Cl)cc1C(=O)N1CCN(c2cc(C(C)(C)C)cc(C(C)(C)C)c2)CC1 [Compound 9, (5-chloro-2-methoxyphenyl)(4-(3,5-di-tert-butylphenyl)piperazin-1-yl)methanone] | 91 | 101
CC(C)(C)c1cc(N2CCN(C(=O)c3scc(S(C)(=O)=O)c3Cl)CC2)cc(C(C)(C)C)c1 [Compound 6, (3-chloro-4-(methylsulfonyl)thiophen-2-yl)(4-(3,5-di-tert-butylphenyl)piperazin-1-yl)methanone] | 86 | 95
CC(C)(C)c1cc(N2CCN(C(=O)c3cc(S(C)(=O)=O)ccc3Cl)CC2)cc(C(C)(C)C)c1 [Compound 25, (2-chloro-5-(methylsulfonyl)phenyl)(4-(3,5-di-tert-butylphenyl)piperazin-1-yl)methanone] | 89 | 99
